Marks after values point to notes of the source that are not given here.
Legend:
HSV-2 strain 186 = test: Genital herpes infection in the mouse model; format: in vivo, mice; settings: Table IV, 20 sec before virus inoculation; for Protected Against Disease, Number / Protected Against Infection, Number: 15 inoculated
[1] = test system: vaginal/cervical epithelial and other cells; settings: in vitro; cited from earlier work

nonoxynol-9 [N-9]
Protected Against Disease, % (HSV-2 strain 186; N-9 5% in PBS): 40^d %
Protected Against Infection, % (HSV-2 strain 186; N-9 5% in PBS): 13%
Protected Against Disease, Number (HSV-2 strain 186; N-9 5% in PBS): 6
Protected Against Infection, Number (HSV-2 strain 186; N-9 5% in PBS): 2
Protected Against Disease, % (HSV-2 strain 186; N-9 50% in PBS): 100^c %
Protected Against Infection, % (HSV-2 strain 186; N-9 50% in PBS): 93^c %
Protected Against Disease, Number (HSV-2 strain 186; N-9 50% in PBS): 15
Protected Against Disease, % (HSV-2 strain 186; N-9 100% in PBS): 100^c %
Protected Against Infection, % (HSV-2 strain 186; N-9 100% in PBS): 93^c %
Protected Against Disease, Number (HSV-2 strain 186; N-9 100% in PBS): 15
Protected Against Infection, Number (HSV-2 strain 186; N-9 100% in PBS): 14
Protected Against Infection, Number (HSV-2 strain 186; N-9 in PBS): 14
lowest concentration injuring cells [1]: about 0.0005%
